Measured values reported in the SangsterLogP compilation.

Assay: method code SF-AS, from DOI: 10.1016/0045-6535(95)00342-8

| SMILES | logP |
| --- | --- |
| CCOC(=O)CC(Sc1ccccc1)C(=O)OCC (stereo not drawn) | 2.6 |
| CCOCCOC(=O)CSc1ccccc1 | 1.73 |
| CC(C)OC(=O)CC(Sc1ccccc1)C(=O)OC(C)C (stereo not drawn) | 3.53 |
| COC(=O)CC(Sc1ccccc1)C(=O)OC (stereo not drawn) | 1.42 |
| CCOC(=O)CCSc1ccccc1 | 2.72 |
| CCOC(=O)CSc1ccccc1 | 2.12 |
| COCCOC(=O)CSc1ccccc1 | 1.02 |
| CCOC(=O)CC(CSc1ccccc1)C(=O)OCC (stereo not drawn) | 2.98 |
| COC(=O)CSc1ccccc1 | 1.5 |

The remaining lines, values ahead:

| logP | SMILES |
| --- | --- |
| 2.53 | CC(C)OC(=O)CSc1ccccc1 |
| 3.95 | CC(C)OC(=O)CC(CSc1ccccc1)C(=O)OC(C)C (stereo not drawn) |
| 1.96 | COC(=O)CC(CSc1ccccc1)C(=O)OC (stereo not drawn) |
| 2.63 | COC(=O)C(C)CSc1ccccc1 (stereo not drawn) |
| 3.02 | CC(C)COC(=O)CSc1ccccc1 |
| 2.61 | COC(=O)CC(C)Sc1ccccc1 (stereo not drawn) |
| 3.26 | CCCCOC(=O)CSc1ccccc1 |
| 2.69 | CCCOC(=O)CSc1ccccc1 |
| 2.04 | COC(=O)CCSc1ccccc1 |
